Values joined by “and” are separate entries in the source; they are usually repeats but may differ in a detail not shown here. Identical values can stand only once.
System: Swiss mice, Sarcoma 180 sc, mean tumor weight T/C
Test: NCI In Vivo Anticancer Drug Screen. Data for tumor model Sarcoma 180 (subcutaneous) in Swiss mice
Settings: endpoint: mean tumor weight, higher = larger tumour
Description: The antitumor activity of compounds was measured in mice bearing transplantable tumors. Survival or tumor size were measured and the results are expressed as the measurement made in the treated group (T) divided by the measurement made in the vehicle treated control group (C). The tumor model used in this assay is Sarcoma 180 (subcutaneous) in Swiss mice

In the case of `CC(=O)OC1(C)CC(C)C(=O)C(C(O)CC2CC(=O)NC(=O)C2)C1` (configuration not stated), the T/C (dose: 1:40.0 dilution, schedule: Q01DX007 (ip), vehicle: water) is reported as 122 % of control, the T/C (dose: 1:2000.0 dilution, schedule: Q01DX007 (ip), vehicle: water) is reported as 79 % of control and 92 % of control and the T/C (dose: 1:4000.0 dilution, schedule: Q01DX007 (ip), vehicle: water) is reported as 49 % of control.
For `O=c1[nH]c(=O)c2[nH]c(N=Nc3ccc(N(CCCl)CCCl)cc3)nc2[nH]1`, the T/C (dose: 6.25 mg/kg/injection, schedule: Q#A X014 (ip), vehicle: saline) was 97 % of control, the T/C (dose: 12.5 mg/kg/injection, schedule: Q#A X014 (ip), vehicle: saline) was 72 % of control and the T/C (dose: 25.0 mg/kg/injection, schedule: Q#A X014 (ip), vehicle: saline) was 85 % of control. The T/C (dose: 50.0 mg/kg/injection, schedule: Q#A X014 (ip), vehicle: saline) was 34 % of control and 49 % of control and the T/C (dose: 100.0 mg/kg/injection, schedule: Q#A X014 (ip), vehicle: saline) was 36 % of control.
For `OCC1OC(n2cnc3c(Cl)ncnc32)C(O)C1O` (configuration not stated), the T/C (dose: 5.9 mg/kg/injection, schedule: Q01DX007 (ip), vehicle: carboxymethylcellulose (CMC)) was 102 % of control, the T/C (dose: 11.75 mg/kg/injection, schedule: Q01DX007 (ip), vehicle: carboxymethylcellulose (CMC)) was 104 % of control and the T/C (dose: 23.5 mg/kg/injection, schedule: Q01DX007 (ip), vehicle: carboxymethylcellulose (CMC)) was 105 % of control. The T/C (dose: 47.0 mg/kg/injection, schedule: Q01DX007 (ip), vehicle: carboxymethylcellulose (CMC)) was 113 % of control, the T/C (dose: 50.0 mg/kg/injection, schedule: Q01DX007 (ip), vehicle: carboxymethylcellulose (CMC)) was 75 % of control and the T/C (dose: 94.0 mg/kg/injection, schedule: Q01DX007 (ip), vehicle: carboxymethylcellulose (CMC)) was 38 % of control. The T/C (dose: 100.0 mg/kg/injection, schedule: Q01DX007 (ip), vehicle: carboxymethylcellulose (CMC)) was 110 % of control, the T/C (dose: 187.5 mg/kg/injection, schedule: Q01DX007 (ip), vehicle: carboxymethylcellulose (CMC)) was 29 % of control and the T/C (dose: 200.0 mg/kg/injection, schedule: Q01DX007 (ip), vehicle: carboxymethylcellulose (CMC)) was 102 % of control. For the same molecule, the T/C (dose: 375.0 mg/kg/injection, schedule: Q01DX007 (ip), vehicle: carboxymethylcellulose (CMC)) was 36 % of control, the T/C (dose: 400.0 mg/kg/injection, schedule: Q01DX007 (ip), vehicle: carboxymethylcellulose (CMC)) was 70 % of control and the T/C (dose: 750.0 mg/kg/injection, schedule: Q01DX007 (ip), vehicle: carboxymethylcellulose (CMC)) was 36 % of control. The T/C (dose: 800.0 mg/kg/injection, schedule: Q01DX007 (ip), vehicle: carboxymethylcellulose (CMC)) was 122 % of control.
`COC(=O)C1C(O)CCC2CN3CCc4c([nH]c5ccccc45)C3CC21` (configuration not stated) was tested, and the T/C (dose: 150.0 mg/kg/injection, schedule: Q01DX007 (ip), vehicle: carboxymethylcellulose (CMC)) was 72 % of control.
For `Nc1ccc(C(=O)NCCCC(=O)O)cc1`, the T/C (dose: 125.0 mg/kg/injection, schedule: Q01DX007 (ip), vehicle: water) was 101 % of control and the T/C (dose: 500.0 mg/kg/injection, schedule: Q01DX007 (ip), vehicle: water) was 90 % of control.
In the case of `CC1=NCCc2c1cc1c([nH]c3ccccc31)c2C`, the T/C (dose: 25.0 mg/kg/injection, schedule: Q01DX007 (ip), vehicle: water) is reported as 108 % of control, the T/C (dose: 50.0 mg/kg/injection, schedule: Q01DX007 (ip), vehicle: water) is reported as 91 % of control and the T/C (dose: 100.0 mg/kg/injection, schedule: Q01DX007 (ip), vehicle: water) is reported as 72 % of control. For the same molecule, the T/C (dose: 200.0 mg/kg/injection, schedule: Q01DX007 (ip), vehicle: water) was 28 % of control.
In the case of `ON=C1c2cc(Cl)ccc2-c2ccc(Cl)cc21`, the T/C (dose: 26.6 mg/kg/injection, schedule: Q01DX007 (ip), vehicle: carboxymethylcellulose (CMC)) is reported as 77 % of control, the T/C (dose: 40.0 mg/kg/injection, schedule: Q01DX007 (ip), vehicle: carboxymethylcellulose (CMC)) is reported as 71 % of control and the T/C (dose: 60.0 mg/kg/injection, schedule: Q01DX007 (ip), vehicle: carboxymethylcellulose (CMC)) is reported as 61 % of control. For the same molecule, the T/C (dose: 90.0 mg/kg/injection, schedule: Q01DX007 (ip), vehicle: carboxymethylcellulose (CMC)) was 57 % of control.

Reference: PubChem BioAssay AID342 (DTP/NCI, 2004)
